{
  "source": "patent US20060039911A1",
  "about": "“Method for the treatment of gastroesophageal reflux disease” (Aphton Corporation, priority 1998, published 2006)",
  "key": {"GERD patients": {"test_system": "GERD patients", "settings": "cited from earlier work"}, "parietal cell": {"test_system": "parietal cell", "settings": "meal-induced gastric acid secretion; cited from earlier work"}, "gastrin-17": {"target": "gastrin-17 (Homo sapiens, UniProt P01350)", "experiment": "Serum anti-gastrin antibody response of Gastrimmune-immunized mice (ELISA)", "format": "in vivo", "text": "Gastrin neutralization was achieved by using the immunological composition Gastrimmune which is composed of the amino terminal domain of gastrin-17 linked, via an amino acid or peptide spacer to diphtheria toxoid which acts as the immunogenic carrier.\nSerum antibody titers rose within 2 weeks of the initial immunization to levels with an antigen binding capacity of >10^−9M. The presence of anti-gastrin antibodies within the serum of Gastrimmune-immunized mice was confirmed by using an ELISA. As expected, no bound gastrin levels were detected in animals immunized with control immunogen."}, "[1]": {"test_system": "pH of the stomach contents", "experiment": "pH of the stomach contents of treated pigs", "format": "in vivo", "text": "FIG. 1 illustrates experimental data concerning the percentage of time that the gastric contents remain above pH 3 in different groups of pigs treated with ranitidine (4 animals), omeprazole (5 animals) and hG17(1-9) (4 animals), as compared to six (6) control animals.\nFIG. 2 illustrates the percentage of time that the gastric contents remain above pH 4 in a group of untreated (control) pigs […] and groups of pigs treated with human gastrin 17(1-9)Ser9-Diphtheria […] (4 animals), ranitidine (4 animals) and omeprazole (5 animals) as described in FIG. 1.\nFIG. 3 depicts the baseline median pH of the gastric contents of a group of six (6) untreated (control) pigs and groups of four (4) pigs treated with human G17(1-9)Ser9-Diphtheria Toxoid, […] pigs with ranitidine and five (5) pigs with omeprazole as described in FIG. 1.\nIn the following Examples, the anti G17 immunogenic composition, 150 mg ranitidine and 60 mg omeprazole were administered to pigs and the resulting changes in the pH of the stomach contents before and after treatment were measured. Specifically, following the stomach pH measurements of the untreated control state of each pig, the stomach pH of the same pigs was measured after the animals were treated with either ranitidine, or composition of human gastrin 17(1-9)-h(G 17)ser9-Diphtheria Toxoid (Gastrimmune), or omeprazole administered individually and at different times in each of four animals (pigs)."}, "[2]": {"settings": "400-800 mg cimetidine and 150-300 mg ranitidine twice daily"}},
  "data": [
    {"compound": "CN/C(=N/CCSCc1nc[nH]c1C)NC#N", "note": "[cimetidine]", "values": [
      {"measurement": "patients with healing of esophagitis, endoscopically determined (mean)", "setting": "GERD patients; [2]", "result": 48, "unit": "%"},
      {"measurement": "patients with symptomatic relief of GERD (mean)", "setting": "GERD patients; [2]", "result": 61, "unit": "%"},
      {"measurement": "efficacy in GERD patients at doses and durations proven effective in healing peptic ulcers", "setting": "GERD patients; GERD patients, peptic ulcer doses and durations", "result": "not effective in GERD"}
    ]},
    {"compound": "Cc1c(OCC(F)(F)F)ccnc1C[S+]([O-])c1nc2ccccc2[nH]1", "note": "(stereo not drawn) [lansoprazole]", "values": [
      {"measurement": "effectiveness in alleviating the symptoms of GERD esophagitis compared with histamine H2 blockers", "setting": "GERD patients; human, in vivo", "result": "more effective than histamine H2 blockers"}
    ]},
    {"compound": "heptadecagastrin [Peptide G17]", "values": [
      {"measurement": "potency as stimulator of gastric acid secretion relative to histamine", "setting": "parietal cell", "result": 1500, "unit": "times"}
    ]},
    {"compound": "human gastrin 17(1-9)-h(G 17)ser9-Diphtheria Toxoid [Gastrimmune]", "values": [
      {"measurement": "presence of anti-gastrin antibodies within the serum (ELISA)", "setting": "gastrin-17; Gastrimmune-immunized mice", "result": "confirmed"},
      {"measurement": "cross-reactivity of the antibodies raised", "setting": "gastrin-17; mouse, in vivo", "result": "cross-reacted with both amidated and glycine-extended gastrin-17"},
      {"measurement": "antigen binding capacity of serum antibody titers", "setting": "gastrin-17; within 2 weeks of the initial immunization", "result": "> 10^−9 M"},
      {"measurement": "inhibition of acid output from the stomach", "setting": "[1]", "result": "inhibited stomach acid output at a level of effectiveness between ranitidine and omeprazole"},
      {"measurement": "time that the gastric contents remain above pH 3", "setting": "[1]; FIG. 1, 150 mg ranitidine, 60 mg omeprazole", "result": "for a longer period of time than in the pigs treated with ranitidine"},
      {"measurement": "time that the gastric contents remain above pH 4", "setting": "[1]; FIG. 2, 150 mg ranitidine, 60 mg omeprazole", "result": "for a longer period of time than in the pigs treated with ranitidine"},
      {"measurement": "median pH of the stomach contents", "setting": "[1]; FIG. 3", "result": "higher than ranitidine treated pigs"}
    ]}
  ]
}
